According to publication PMC2765688, “Functional Characterization of N-Terminally GFP-Tagged GLP-1 Receptor” (Journal of Biomedicine and Biotechnology, 2009):

Experiments:
[1] = molecular target: T1, GFP-GLP-1 receptor (Homo sapiens, UniProt P43220); test: cAMP production, CHO cells expressing GFP-GLP-1 receptor; format: cell-based; details: 10 μM forskolin, 15 min, 37°C
T1 construct: linker: translated MCS of pEGFP-C3 plus translated 5'-untranslated region of clone hGLPR-6(20), between EGFP and the receptor (N); expressed in transfected cells; host or cells: CHO cells, transient transfection, pEGFP-C3
Method: (§1) Cells were plated in 6-well plates at 50 × 10^4 cells/well and incubated 24 hours in growth medium supplemented with 10% fetal bovine serum.
(§2) After stimulation, stimulating buffer was removed and replaced with 150 μL of TE buffer (50 mM Tris, 5 mM EDTA, pH = 7.4). Cells were lysed by scraping, followed by boiling at 100°C for 5 minutes and centrifuged at 16000× g for 10 minutes. The supernatant was collected and the total content of cAMP was measured by a specific radioimmunoassay (Amersham).
(§3) Statistical analysis (one-way ANOVA) was carried out by Prism 4 computer program (GraphPad Software, USA), which was used also for graphical presentation of the results. In ANOVA analysis Tukey-Kramer multiple comparison test was used to reveal significant differences between groups of interest; P > .05 was not considered significant.

[2] = molecular target: T2, human GLP-1 receptor (Homo sapiens, UniProt P43220); test: cAMP production, CHO cells expressing GLP-1 receptor; format: cell-based; details: 10 μM forskolin, 15 min, 37°C, P < .001
T2 construct: expressed in transfected cells; host or cells: CHO cells, transient transfection, pcDNA3
Method: as §1, §2, §3

Structure (SMILES): C=C[C@@]1(C)CC(=O)[C@]2(O)[C@@]3(C)[C@@H](O)CCC(C)(C)[C@@H]3[C@H](O)[C@H](OC(C)=O)[C@@]2(C)O1 [forskolin]
- cAMP production in response to forskolin (in words) ([1]; CHO cells expressing GFP-GLP-1 receptor, P < .001): significantly increased
- Sensitivity to forskolin of GFP-GLP-1 receptor cells in comparison to GLP-1 receptor cells (in words) ([1]; Tukey-Kramer test): not more sensitive
- cAMP production in response to forskolin (in words) [2]: significantly increased
